In US20050250819A1 (priority 2004, published 2005):

System: Type III protein secretion of the chimeric SopE‘-’Bla polypeptide (SPI1 type III protein secretion system)
Assay: Primary assay: Type III protein secretion of the chimeric SopE'-'Bla polypeptide by Salmonella enterica
Format: cell-based
Conditions: read-out: SopE IC50(μM)
Excerpt: Primary assay: Type III protein secretion of the chimeric SopE‘-’Bla polypeptide by Salmonella enterica. This procedure is a cell-based assay that measures the type III-dependent secretion by Salmonella enterica of a plasmid-encoded chimeric polypeptide whose synthesis can be regulated, and which is endowed with an enzymatic activity that can be monitored colorimetrically by hydrolysis of a substrate that is unable to penetrate into the bacterial cytoplasm within the time constraints of the reaction. Thus, the colormetric reaction is not influenced by SopE‘-’Bla polypeptide in the bacterial cytplasm. Instead, it effectively measures the amount of polypeptide that has been secreted from the S. enterica cytoplasm to the extracellular medium via type III system protein secretion.
The SopE‘-’Bla recombinant polypeptide consists of two functionally distinct domains spliced together. The N-terminus domain is encoded by a polynucleotide region specifying the signal for type III secretion of the SopE polypeptide of S. enterica, an effector of the SPI1 type III protein secretion system. The C-terminus domain of SopE‘-’Bla consists of a 263 amino acid peptide sequence that corresponds to the TEM-1 β-lactamase expressed by plasmid pBR322 but without its N-terminal signal sequence. The TEM-1 β-lactamase part of the SopE‘-’Bla chimeric polypeptide is used as a reporter enzyme. It is capable of hydrolyzing nitrocefin resulting in a product whose accumulation can be monitored by colorimetric detection. The secretion of the SopE‘-’Bla chimeric polypeptide from the cytoplasm to the extracellular medium is dependent on type III protein secretion.
For this procedure, cells grown under conditions known to favor a functional SPI1 secretion system are induced for expression of the SopE‘-’Bla protein and grown either in the presence or in the absence of putative inhibitors for determined time. Nitrocefin is then added to the various cultures and its hydrolysis are used for quantitation. An inhibitor of Type III protein secretion is generally a compound that reduces the signal of the enzymatic reaction by decreasing the amount of SopE‘-’Bla secreted into the extracellular medium.

Row | SMILES | IC50 [µM]
1 | O=C(N[C@@H](Cc1ccc(Cl)cc1)C(=O)O)/C(=C\c1ccc(-c2ccccc2)cc1)NC(=O)c1ccc(C(F)(F)F)cc1 [Compound 25, (S)-2-[3-Biphenyl-4-yl-2-(4-trifluoromethylbenzoylamino)acryloylamino]-3-(4-chlorophenyl)propionic acid] | 6
2 | O=C(O)CCCCNC(=O)/C(=C\c1cccc(C(F)(F)F)c1)NC(=O)c1ccc(-c2ccccc2)cc1 [Compound 99] | 42
3 | O=C(O)C[C@H](Cc1ccc(Cl)cc1)NC(=O)/C(=C\c1ccc(-c2ccccc2)cc1)NC(=O)c1ccc(C(F)(F)F)cc1 [Compound 13, (S)-3-[3-Biphenyl-4-yl-2-(4-trifluoromethylbenzoylamino)acryloylamino]-4-(4-chlorophenyl)butyric acid] | 5.2
4 | O=C(NC(Cc1ccc(F)cc1)C(=O)O)/C(=C\c1cccc(C(F)(F)F)c1)NC(=O)c1ccc(-c2ccccc2)cc1 (centres unmarked) [Compound 71, 2-[2-[(Biphenyl-4-carbonyl)amino]-3-(3-trifluoromethylphenyl)acryloylamino]-3-(4-fluorophenyl)propionic acid] | 34.2
5 | O=C(NN(Cc1ccc(-c2ccccc2)cc1)C(=O)N[C@@H](CSCc1ccccc1)C(=O)O)c1ccc(C(F)(F)F)cc1 [Compound 8, 4-Trifluoromethylbenzoic acid-N′-[(biphenyl-4-yl)methyl]-N′-[[[(2-benzylthio)-1-carboxyethyl]amino]carbonyl]hydrazide] | 10
6 | O=C(N[C@H](Cc1ccc(Cl)cc1)C(=O)O)/C(=C\c1cccc(C(F)(F)F)c1)NC(=O)c1ccc(Cl)cc1 [Compound 28, (R)-2-[2-(4-Chlorobenzoylamino)-3-(3-trifluoromethylphenyl)acryloylamino]-3-(4-chlorophenyl)propionic acid] | 86
7 | O=C(N[C@H](COCc1ccccc1)C(=O)O)/C(=C\c1ccc(-c2ccccc2)cc1)NC(=O)c1ccc(C(F)(F)F)cc1 [Compound 24, (R)-3-Benzyloxy-2-[3-biphenyl-4-yl-2-(4-trifluoromethylbenzoylamino)-acryloylamino]propionic acid] | 12.5
8 | O=C(O)CCCCNC(=O)/C(=C\c1ccc(Cl)c(Cl)c1)NC(=O)c1ccc(-c2ccccc2)cc1 [Compound 113] | 14.5
9 | CC(C)(S)C(NC(=O)/C(=C\c1ccc(Cl)c(Cl)c1)NC(=O)c1ccc(-c2ccccc2)cc1)C(=O)O (centres unmarked) [Compound 92] | 5
10 | CN(C(=O)/C(=C\c1cccc(C(F)(F)F)c1)NC(=O)c1ccc(-c2ccccc2)cc1)[C@H](Cc1ccc(Cl)cc1)C(=O)O [Compound 42, (R)-2-{[2-[(Biphenyl-4-carbonyl)amino]-3-(3-trifluoromethylphenyl)acryloyl]-methylamino}-3-(4-chlorophenyl)propionic acid] | 15
11 | O=C(NN(Cc1ccc(Cl)c(C(F)(F)F)c1)C(=O)NC(Cc1ccc(Cl)cc1)C(=O)O)c1ccc(-c2ccccc2)cc1 (centres unmarked) [Compound 52, 4-Biphenylcarboxylic acid-N′-[(4-chloro-3-trifluoromethylphenyl)methyl]-N′-[[[2-(4-chlorophenyl)-1-carboxyethyl]amino]carbonyl]hydrazide] | 3.1
12 | O=C(O)[C@H](Cc1ccc(Cl)cc1)NC(=O)N(CCc1ccc(-c2ccccc2)cc1)Cc1ccc(Cl)c(Cl)c1 (stereo in doubt) [Compound 86, 2-[3-(2-Biphenyl-4-yl-ethyl)-3-(3,4-dichlorobenzyl)ureido]-3-(4-chlorophenyl)-propionic acid] | 1.1
13 | O=C(N[C@@H](Cc1ccc(Cl)cc1)C(=O)O)/C(=C\c1cccc(C(F)(F)F)c1)NC(=O)c1cc2ccccc2o1 [Compound 69, (S)-2-[2-[(Benzofuran-2-carbonyl)amino]-3-(3-trifluoromethylphenyl)acryloylamino]-3-(4-chlorophenyl)propionic acid] | 28.5
14 | CC(C)(S)C(NC(=O)/C(=C\c1ccc(-c2ccccc2)cc1)NC(=O)c1ccc(-c2ccccc2)cc1)C(=O)O (centres unmarked) [Compound 126] | 3
15 | NC(=O)C[C@@H](NC(=O)/C(=C\c1ccc(-c2ccccc2)cc1)NC(=O)c1ccc(C(F)(F)F)cc1)C(=O)O [Compound 152] | 100
16 | O=C(N[C@@H](Cc1ccc(Cl)cc1)C(=O)O)/C(=C\c1ccc(Oc2ccccc2)cc1)NC(=O)c1ccc(C(F)(F)F)cc1 [Compound 16, (S)-3-(4-Chlorophenyl)-2-[3-(4-phenoxyphenyl)-2-(4-trifluoromethylbenzoylamino)-acryloylamino]propionic acid] | 4.9

Row | SMILES | IC50 [µM]
17 | O=C(N[C@@H](COCc1ccccc1)C(=O)O)/C(=C\c1ccc(Cl)c(Cl)c1)NC(=O)c1ccc(Cl)cc1 [Compound 29, (S)-3-Benzyloxy-2-[2-(4-chlorobenzoylamino)-3-(3,4-dichlorophenyl)-acryloylamino]propionic acid] | 70
18 | O=C(NC(Cc1ccc(Cl)cc1)C(=O)O)/C(=C\c1ccc(Cl)c(C(F)(F)F)c1)CC(=O)c1ccc(-c2ccccc2)cc1 (centres unmarked) [Compound 5, 2-[2-(2-Biphenyl-4-yl-2-oxoethyl)-3-(4-chloro-3-trifluoromethylphenyl)-acryloylamino]-3-(4-chlorophenyl)propionic acid] | 0.8
19 | O=C(N[C@@H](Cc1ccc(Cl)cc1)C(=O)O)/C(=C\c1ccc(Br)cc1)NC(=O)C1CCN(c2nccc(C(F)(F)F)n2)CC1 [Compound 82, (S)-2-(3-(4-Bromophenyl)-2-{[1-(4-trifluoromethylpyrimidin-2-yl)piperidine-4-carbonyl]amino}acryloylamino)-3-(4-chlorophenyl)propionic acid] | 27.8
20 | CC(C)(S)C(NC(=O)/C(=C\c1cccc(Oc2ccccc2)c1)NC(=O)c1ccc(-c2ccccc2)cc1)C(=O)O (centres unmarked) [Compound 127] | 10
21 | O=C(N[C@H](COCc1ccccc1)C(=O)O)/C(=C\c1ccc(Cl)c(Cl)c1)NC(=O)c1cc2ccccc2s1 [Compound 68, (R)-2-[2-[(Benzo[b]thiophene-2-carbonyl)amino]-3-(3,4-dichlorophenyl)-acryloylamino]-3-benzyloxypropionic acid] | 52
22 | O=C(N[C@@H](CSCc1ccccc1)C(=O)O)/C(=C\c1cccc2ccccc12)NC(=O)c1ccc(C(F)(F)F)cc1 [Compound 3, (R)-3-Benzylsulfanyl-2-[3-naphthalen-1-yl-2-(4-trifluoromethylbenzoylamino)-acryloylamino]propionic acid] | 30.3
23 | O=C(N[C@@H](Cc1ccc(Cl)cc1)C(=O)O)/C(=C\c1cccc(C(F)(F)F)c1)NC(=O)c1ccc(Cl)cc1 [Compound 27, (S)-2-[2-(4-Chlorobenzoylamino)-3-(3-trifluoromethylphenyl)acryloylamino]-3-(4-chlorophenyl)propionic acid] | 87
24 | O=C(O)[C@H](COCc1ccccc1)NC(=O)N(CCc1ccc(-c2ccccc2)cc1)Cc1ccc(Cl)c(Cl)c1 [Compound 89, (S)-3-Benzyloxy-2-[3-(2-biphenyl-4-yl-ethyl)-3-(3,4-dichlorobenzyl)ureido]propionic acid] | 2.1
25 | O=C(NN(Cc1cccc(C(F)(F)F)c1)C(=O)NC(Cc1ccc(Cl)cc1)C(=O)O)c1ccc(-c2ccccc2)cc1 (centres unmarked) [Compound 51, 4-Biphenylcarboxylic acid-N′-[(3-trifluoromethylphenyl)methyl]-N′-[[[2-(4-chlorophenyl)-1-carboxyethyl]amino]carbonyl]hydrazide] | 8
26 | COc1cccc(C(=O)N/C(=C/c2ccc(Cl)c(Cl)c2)C(=O)NC(Cc2ccc(Cl)cc2)C(=O)O)c1 (centres unmarked) [Compound 117] | 15.5
27 | O=C(NC(Cc1ccc(Br)cc1)C(=O)O)/C(=C\c1cccc(C(F)(F)F)c1)NC(=O)c1ccc(-c2ccccc2)cc1 (centres unmarked) [Compound 60, 2-[2-[(Biphenyl-4-carbonyl)amino]-3-(3-trifluoromethylphenyl)acryloylamino]-3-(4-bromophenyl)propionic acid] | 9.2
28 | CCc1ccc(/C=C(/NC(=O)c2ccc(-c3ccccc3)cc2)C(=O)NC(C(=O)O)C(C)(C)S)cc1 (centres unmarked) [Compound 125] | 20
29 | O=C(N[C@H](COCc1ccccc1)C(=O)O)/C(=C\c1ccc(C(F)(F)F)cc1)NC(=O)c1cc2ccccc2s1 [Compound 65, (R)-2-[2-[(Benzo[b]thiophene-2-carbonyl)amino]-3-(4-trifluoromethylphenyl)-acryloylamino]-3-benzyloxypropionic acid] | 88
30 | O=C(N[C@@H](CSCc1ccccc1)C(=O)O)/C(=C\c1ccc(Br)cc1)NC(=O)C1CCN(c2nccc(C(F)(F)F)n2)CC1 [Compound 81, (R)-3-Benzylsulfanyl-2-(3-(4-bromophenyl)-2-{[1-(4-trifluoromethylpyrimidin-2-yl)piperidine-4-carbonyl]amino}acryloylamino)propionic acid] | 58.1
31 | O=C(N[C@@H](CSCc1ccccc1)C(=O)O)/C(=C\c1ccccc1Cl)NC(=O)c1ccc(C(F)(F)F)cc1 [Compound 151] | 50
32 | O=C(N/C(=C/c1cccc(C(F)(F)F)c1)C(=O)N1CCCCC1C(=O)O)c1ccc(C(F)(F)F)cc1 (centres unmarked) [Compound 118] | 100
